Molecular target: ROCK2 (human) (UniProt O75116)
Assay: Inhibition of ROCK2 Kinase Activity

Chain of ROCK2 (human) (O75116 whole entry, looked up): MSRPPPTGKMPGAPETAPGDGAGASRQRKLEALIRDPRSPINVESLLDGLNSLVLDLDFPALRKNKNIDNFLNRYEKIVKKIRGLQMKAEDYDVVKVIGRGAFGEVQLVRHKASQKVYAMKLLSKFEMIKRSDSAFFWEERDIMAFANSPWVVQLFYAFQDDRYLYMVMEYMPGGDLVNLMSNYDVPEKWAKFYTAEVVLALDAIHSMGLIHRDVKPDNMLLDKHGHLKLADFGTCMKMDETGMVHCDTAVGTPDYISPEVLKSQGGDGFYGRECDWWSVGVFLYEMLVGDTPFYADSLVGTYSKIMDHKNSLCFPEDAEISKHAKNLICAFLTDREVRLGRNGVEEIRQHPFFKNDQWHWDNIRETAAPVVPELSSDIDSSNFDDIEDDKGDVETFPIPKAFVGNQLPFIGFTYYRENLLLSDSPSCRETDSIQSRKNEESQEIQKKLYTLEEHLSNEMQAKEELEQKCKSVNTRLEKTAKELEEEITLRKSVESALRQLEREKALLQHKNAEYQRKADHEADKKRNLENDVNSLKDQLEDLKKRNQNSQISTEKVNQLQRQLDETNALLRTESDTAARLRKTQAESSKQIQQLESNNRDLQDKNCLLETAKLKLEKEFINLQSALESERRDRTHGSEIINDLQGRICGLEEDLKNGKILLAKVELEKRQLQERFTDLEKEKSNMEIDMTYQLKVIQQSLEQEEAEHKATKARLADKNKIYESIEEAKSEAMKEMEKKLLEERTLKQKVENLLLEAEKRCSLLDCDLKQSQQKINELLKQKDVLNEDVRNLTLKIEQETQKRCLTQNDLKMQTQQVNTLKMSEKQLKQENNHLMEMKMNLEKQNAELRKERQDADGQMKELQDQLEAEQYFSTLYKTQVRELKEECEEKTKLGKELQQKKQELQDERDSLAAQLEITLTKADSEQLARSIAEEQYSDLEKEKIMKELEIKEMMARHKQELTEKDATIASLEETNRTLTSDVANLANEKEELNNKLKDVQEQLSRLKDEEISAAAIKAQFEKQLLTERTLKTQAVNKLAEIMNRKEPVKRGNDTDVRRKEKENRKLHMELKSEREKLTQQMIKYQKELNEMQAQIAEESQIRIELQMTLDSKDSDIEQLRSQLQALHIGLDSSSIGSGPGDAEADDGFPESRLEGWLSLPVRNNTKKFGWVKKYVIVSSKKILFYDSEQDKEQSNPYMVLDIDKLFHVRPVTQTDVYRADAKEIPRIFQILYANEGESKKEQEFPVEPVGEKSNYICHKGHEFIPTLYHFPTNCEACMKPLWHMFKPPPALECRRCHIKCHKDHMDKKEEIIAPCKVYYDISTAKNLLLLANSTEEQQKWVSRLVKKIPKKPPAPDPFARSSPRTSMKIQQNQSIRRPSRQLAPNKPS

SMILES	IC50 [µM]
Cc1cc([N+](=O)[O-])ccc1C(=O)Nc1cc2cc[nH]c(=O)c2cc1Cl	< 1
O=C(Nc1ccc2c(=O)[nH]cnc2c1)C1CCN(Cc2ccccc2)CC1	< 1
Cc1ccccc1C(=O)Nc1cc2cc[nH]c(=O)c2cc1Cl	< 1
CO[C@@H](C(=O)Nc1cc2cc[nH]c(=O)c2cc1Cl)c1ccccc1	< 1
C[C@@](O)(C(=O)Nc1cc2cc[nH]c(=O)c2cc1Cl)c1ccccc1	< 1
CSCCC(=O)Nc1cc2cc[nH]c(=O)c2cc1Cl	< 1
N[C@@H](C(=O)Nc1ccc2c(=O)[nH]ccc2c1)c1ccc(Cl)cc1	< 1
N[C@@H](C(=O)Nc1ccc2c(=O)[nH]ccc2c1)c1ccccc1	< 1
CC(NCC1CCCCC1)C(=O)Nc1cc2cc[nH]c(=O)c2cc1Cl (stereo not given)	< 1
O=C(CNCc1ccncc1)Nc1cc2cc[nH]c(=O)c2cc1Cl	< 1
O=C(CNCC1CCCCC1)Nc1ccc2c(=O)[nH]cnc2c1	< 1
O=C(Nc1cc2cc[nH]c(=O)c2cc1Cl)[C@H]1[C@@H]2CNC[C@@H]21	< 1
O=C(Nc1cc2cc[nH]c(=O)c2cc1Cl)C1CNCCN1 (stereo not given)	< 1
O=C(Nc1cc2cc[nH]c(=O)c2cc1Cl)C1(c2ccc(Cl)cc2)CCNCC1	< 1
NCCCS(=O)(=O)c1ccc(C(=O)Nc2cc3cc[nH]c(=O)c3cc2Cl)c(Cl)c1	< 1
O=C(Nc1ccc2c(=O)[nH]ccc2c1)[C@H]1CCCNC1	< 1
COc1cc2c(=O)[nH]ccc2cc1NC(=O)[C@@H](N)C1CCCCC1	< 1
CS(=O)(=O)CC(=O)Nc1cc2cc[nH]c(=O)c2cc1Cl	< 1
C[C@](O)(C(=O)Nc1cc2cc[nH]c(=O)c2cc1Cl)c1ccccc1	< 1
CC(C)(C(=O)Nc1cc2cc[nH]c(=O)c2cc1Cl)c1ccccc1	< 1
O=C(CNCC1CCOCC1)Nc1cc2cc[nH]c(=O)c2cc1Cl	< 1
O=C(CNCc1ccccn1)Nc1cc2cc[nH]c(=O)c2cc1Cl	< 1
O=C(O)C(C(=O)Nc1cc2cc[nH]c(=O)c2cc1Cl)c1ccccc1 (stereo not given)	< 1
N[C@H](Cc1ccc2ccccc2c1)C(=O)Nc1cc2cc[nH]c(=O)c2cc1Cl	< 1
CCN(CCN(C)C)C(C(=O)Nc1cc2cc[nH]c(=O)c2cc1Cl)c1ccccc1 (stereo not given)	< 1
CS(=O)(=O)c1ccc(Cl)c(C(=O)Nc2cc3cc[nH]c(=O)c3cc2Cl)c1	< 1

SMILES	IC50 [µM]
Cc1onc(-c2ccccc2)c1C(=O)Nc1cc2cc[nH]c(=O)c2cc1Cl	< 1
O=C(Nc1cc2cc[nH]c(=O)c2cc1Cl)C1(c2ccccc2)CCNCC1	< 1
O=C(Nc1ccc2c(=O)[nH]cnc2c1)[C@H]1CCCN1	< 1
N[C@H]1CCC[C@H](C(=O)Nc2cc3cc[nH]c(=O)c3cc2Cl)C1	< 1
O=C(Nc1ccc2c(=O)[nH]cnc2c1)C1(c2ccc(Cl)cc2)CCCC1	< 1
O=C(Nc1cc2cc[nH]c(=O)c2cc1Cl)c1ccc([N+](=O)[O-])cc1Cl	< 1
O=C(Nc1ccc2c(=O)[nH]cnc2c1)C(NC1CC1)c1ccccc1 (stereo not given)	< 1
CC(C(=O)Nc1cc2cc[nH]c(=O)c2cc1Cl)N1CCSCC1 (stereo not given)	< 1
O=C(CNCC1CCCCC1)Nc1cc2cc[nH]c(=O)c2cc1Cl	< 1
N[C@H](Cc1cccc2ccccc12)C(=O)Nc1cc2cc[nH]c(=O)c2cc1Cl	< 1
C[C@H]1CN(C)CC[C@@H]1C(=O)Nc1cc2cc[nH]c(=O)c2cc1Cl	< 1
C[C@H]1CC(=O)CC[C@@H]1C(=O)Nc1cc2cc[nH]c(=O)c2cc1Cl	< 1
N[C@H](Cc1ccccc1)C(=O)Nc1ccc2c(=O)[nH]cnc2c1	< 1
CC(C)(C)C(=O)Nc1cc2cc[nH]c(=O)c2cc1Cl	< 1
C[C@](O)(C(=O)Nc1cc2nc[nH]c(=O)c2cc1Cl)c1ccc(Cl)cc1	< 1
O=C(Nc1cc2cc[nH]c(=O)c2cc1Cl)C1CCN(Cc2ccncc2)CC1	< 1
O=C(Nc1cc2cc[nH]c(=O)c2cc1Cl)c1cccc(Cl)c1Cl	< 1
CC[C@@H](C)[C@H](N)C(=O)Nc1cc2cc[nH]c(=O)c2cc1Cl	< 1
CC(C)OC(=O)Nc1cc2cc[nH]c(=O)c2cc1Cl	< 1
N[C@@H](Cc1ccccc1)C(=O)Nc1ccc2c(=O)[nH]cnc2c1	< 1
O=C(Nc1cc2cc[nH]c(=O)c2cc1Cl)C(c1ccccc1)N1CCC(O)CC1 (stereo not given)	< 1
O=C(Nc1cc2cc[nH]c(=O)c2cc1Cl)C1(Cc2ccccc2)CCNCC1	< 1
O=C(Nc1cc2cc[nH]c(=O)c2cc1Cl)c1ccccc1CN1CCOCC1	< 1
C[C@H]1CNCC[C@@H]1C(=O)Nc1cc2cc[nH]c(=O)c2cc1Cl	< 1
C[C@](O)(C(=O)Nc1cc2cc[nH]c(=O)c2cc1Cl)c1ccc(Cl)cc1	< 1

More lines, now with the values ahead:

IC50 [µM]	SMILES
< 1	O=C(Nc1cc2cc[nH]c(=O)c2cc1Cl)c1c(F)ccc(F)c1F
< 1	CCOCCCNC(C(=O)Nc1cc2cc[nH]c(=O)c2cc1Cl)c1ccccc1 (stereo not given)
< 1	C[C@](O)(C(=O)Nc1ccc2c(=O)[nH]cnc2c1)c1ccc(Cl)cc1
< 1	CC(NCCc1cccs1)C(=O)Nc1cc2cc[nH]c(=O)c2cc1Cl (stereo not given)
< 1	CC(C)(C)NCC(=O)Nc1cc2cc[nH]c(=O)c2cc1Cl
< 1	CN(C)C(C(=O)Nc1ccc2c(=O)[nH]ccc2c1)c1ccccc1 (stereo not given)
< 1	CNC(C(=O)Nc1ccc2c(=O)[nH]cnc2c1)c1ccccc1 (stereo not given)
< 1	CSCC(=O)Nc1cc2cc[nH]c(=O)c2cc1Cl
< 1	O=C(CNC1CCCc2ccccc21)Nc1cc2cc[nH]c(=O)c2cc1Cl (stereo not given)
< 1	O=C(Nc1ccc2c(=O)[nH]ccc2c1)C1CNCC1c1ccccc1 (stereo not given)
< 1	O=C(Nc1cc2cc[nH]c(=O)c2cc1Cl)[C@H]1CCCO1
< 1	O=C(Nc1cc2cc[nH]c(=O)c2cc1Cl)[C@H]1CNCC[C@@H]1c1ccccc1
< 1	O=C(Nc1cc2cc[nH]c(=O)c2cc1Cl)[C@H](O)c1ccccc1Cl
< 1	CC(C)O[C@@H](C(=O)Nc1cc2cc[nH]c(=O)c2cc1Cl)c1ccccc1
< 1	CN(C)C(C(=O)Nc1cc2nc[nH]c(=O)c2cc1Cl)c1ccccc1 (stereo not given)
< 1	CN(CC(=O)Nc1ccc2c(=O)[nH]cnc2c1)C1CCCCC1
< 1	CN1CCN(Cc2ccccc2C(=O)Nc2cc3cc[nH]c(=O)c3cc2Cl)CC1
< 1	N[C@H]1C[C@H](C(=O)Nc2cc3cc[nH]c(=O)c3cc2Cl)C1
< 1	O=C(Nc1cc2cc[nH]c(=O)c2cc1Cl)[C@@H]1CCCO1
< 1	CC(C)(N)C(=O)Nc1ccc2c(=O)[nH]ccc2c1
< 1	COc1cc2c(=O)[nH]ccc2cc1NC(=O)[C@@H](OC)c1ccccc1
< 1	CN1CCC(C(=O)Nc2cc3cc[nH]c(=O)c3cc2F)CC1
< 1	O=C(Nc1cc2cc[nH]c(=O)c2cc1Cl)c1c(F)cc(F)cc1F
< 1	COC(C(=O)Nc1cc2cc[nH]c(=O)c2cc1Cl)(c1ccccc1)C(F)(F)F (stereo not given)
< 1	CCOC(=O)CCC(=O)Nc1ccc2c(=O)[nH]ccc2c1
< 1	O=C(Nc1cc2cc[nH]c(=O)c2cc1Cl)c1ccc([N+](=O)[O-])cc1C(F)(F)F
< 1	CC1(C(=O)Nc2cc3cc[nH]c(=O)c3cc2Cl)CCNCC1
< 1	O=C(Nc1cc2nc[nH]c(=O)c2cc1Cl)[C@H]1CNC[C@@H]1c1cccc(Br)c1
< 1	CNC(C)(C)C(=O)Nc1ccc2c(=O)[nH]ccc2c1

Reference: the Kinase Knowledgebase extract (Sharma et al. 2016)
